Data taken from US8715684B2, “Peptides inducing a CD4i conformation in HIV gp120 while retaining vacant CD4 binding site” (priority 2007, dated 2014).
pKd: −log10 of the molar value. Entries after “also recorded” stand apart in the source; their conditions may differ. Where two headings read alike, the source gives them in different places.

Assays:
gp120BaL = assay: Dot blot of m2 phages with gp120BaL, probed with panel of defining mAbs (FIG. 8); assay type: binding, HIV-1
Description: Each dot was applied in duplicate.
A second measure of “improved peptide” characteristics is the ability to bind gp120s derived from other HIV-1 isolates. (m1 was developed using gp120451.) The preference was to identify a peptide that has the same type of effect on the BaL isolate of HIV-1 as does the m1-peptide for the 451 isolate.

gp120 = conditions: for pKd: quantitative ELISA, FIG. 7
gp120451 = assay: Dot blot of phage-displayed peptides incubated with gp120451, probed with defining mAbs or CD4 (FIG. 1, 4); assay type: binding, HIV-1
Procedure: Phages expressing the m1 peptide as protein fusions (m1) or not (fth1, as a negative control) were applied to nitrocellulose membranes as dots and incubated with or without gp120451. After washing, the filters were probed with either anti-gp120 mAb or the CG10 mAb as indicated and signals were developed by enhanced chemiluminescence (ECL)
Of the gp120-binding peptides isolated, one was particularly unique. […] As noted above, binding of CG10 to its epitope is absolutely dependent on the CD4i conformation of gp120. It was concluded that m1 binds to the CD4 binding site and acts as a CD4 mimetic, triggering a structural rearrangement locking gp120 into the CD4i conformation.
Because the CD4i conformation of gp120 can disrupt the integrity/accessibility of important neutralizing epitopes of gp120 [e.g. b12 (Xiang et al., 2002, supra)] the binding of a panel of neutralizing antibodies was tested.

gp120JR-FL = assay: Binding of peptides to gp120 of the JR-FL isolate; set-up: species or system HIV-1
CD4 = CD4 (Homo sapiens, UniProt P01730); assay: Capture ELISA of m1 phages with CD4 alone (FIG. 2E); assay type: binding; conditions: CD4 without gp120
Description: Anti-M13 (phage) antibody was adsorbed to microplate wells to capture either m1 peptide-expressing phages (A, B, D, E) or fth1-negative control phage (C).

Sequence: CDRRDLPDWAIRAC [m2]
- CD4 binding by peptide-captured gp120BaL (gp120BaL): is able to bind CD4 itself
- induction of CD4i epitopes (CG10, 17b) in gp120BaL (gp120BaL): induces CD4i epitopes; also recorded: induces both the CG10 and 17b epitopes
- integrity of neutralizing / CD4BS epitopes (2G12, b12, b6, m14) in peptide-captured gp120BaL (gp120BaL): maintains the integrity of the CD4BS epitopes; also recorded: intact and available
- binding to gp120BaL (gp120BaL; phage-displayed peptide): binds m2 peptide; also recorded: binds also to gp120BaL
- fold increase in binding / affinity for gp120 versus m1 (gp120; compared with m1): 10 fold
- pKd (gp120; read-out: KD for gp120 binding): 8.19
- pKd (gp120; read-out: apparent affinity constant for gp120 binding): 8.19
- binding of CD4BS mAbs b12, b6 and m14 to peptide/gp120 complex (gp120451): without interfering with b12, b6 or m14 binding
- induction of the CG10 epitope (CG10 mAb binding to peptide/gp120451 complex) (gp120451; phage-displayed peptide): induced CG10 binding

Sequence: CDRRDLPQWAKREC [m1]
- binding to gp120JR-FL (gp120JR-FL): not to gp120JR-FL
- binding of peptide to CD4 alone (CD4): no affinity for CD4 alone; also recorded: CD4 does not bind m1
- binding of CD4BS mAbs b12, b6 and m14 to peptide/gp120 complex (gp120451): bind the m1/gp120 complex very well; also recorded: without interfering with b12, b6 or m14 binding
- binding of CD4 to peptide/gp120 complex (gp120451): CD4 itself bound the m1/gp120 complex
- binding to gp120451 (gp120451; phage-displayed peptide): specifically bind gp120; also recorded: binds gp120; also recorded: binds to gp120451
- induction of the CG10 epitope (CG10 mAb binding to peptide/gp120451 complex) (gp120451; phage-displayed peptide): elicit the CG10 epitope; also recorded: CG10 bound the complex; also recorded: induces the CG10 epitope; also recorded: induced CG10 binding
